We go through 4 compounds from ChEMBL document CHEMBL1143608, “Novel C-17-heteroaryl steroidal CYP17 inhibitors/antiandrogens: synthesis, in vitro biological activity, pharmacokinetics, and antitumor activity in the LAPC4 human prostate cancer xenograft model” (J Med Chem, 2005).

Data set [1] is described as follows: Time required for maximum concentration at 100 mg/kg upon subcutaneous administration was determined in mouse; n = 5. Format: ADME, organism-based. On the set-up: dose 100 mg/kg, route subcutaneous. To be noted: in vivo, sc.
Data set [2] in a line: Volume of distribution at 50 mg/kg upon subcutaneous administration was determined in mouse; n = 5. Format: ADME, organism-based. The conditions noted are these: in vivo, sc. Set-up: dose 50 mg/kg, route subcutaneous.
The target of data set [3] is T1, 3-oxo-5-alpha-steroid 4-dehydrogenase 2 (Homo sapiens) (UniProt P31213).
T1 sequence (whole entry): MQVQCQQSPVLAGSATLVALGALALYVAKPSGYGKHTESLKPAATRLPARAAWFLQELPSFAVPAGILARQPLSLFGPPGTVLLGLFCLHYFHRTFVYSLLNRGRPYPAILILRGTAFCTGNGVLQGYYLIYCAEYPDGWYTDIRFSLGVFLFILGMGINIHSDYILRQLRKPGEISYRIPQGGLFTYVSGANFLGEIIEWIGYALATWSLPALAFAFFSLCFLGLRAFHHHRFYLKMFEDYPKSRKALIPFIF
Put plainly: (§1) Inhibition of [1-beta-2beta-3H]- -testosterone binding to human steroid 5-alpha-reductase type 2 of BPH tissue at 10 uM. The format is functional.

Data set [4] in a line: Time required for maximum concentration at 50 mg/kg upon subcutaneous administration was determined in mouse; n = 5. Format: ADME, organism-based. On the set-up: dose 50 mg/kg, route subcutaneous. To be noted: in vivo, sc.
Data set [5] can be described thus: Maximum concentration at 100 mg/kg upon subcutaneous administration was determined in mouse; n = 5. Format: ADME, organism-based. Set-up: dose 100 mg/kg, route subcutaneous. The conditions noted are these: in vivo, sc.
Data set [6] is described as follows: Elimination rate constant at 50 mg/kg upon subcutaneous administration was determined in mouse; n = 5. Format: ADME, organism-based. To be noted: in vivo, sc. On the set-up: dose 50 mg/kg, route subcutaneous.
Data set [7] can be described thus: Volume of distribution at 100 mg/kg upon subcutaneous administration was determined in mouse; n = 5. Format: ADME, organism-based. Set-up: dose 100 mg/kg, route subcutaneous. To be noted: in vivo, sc.
Data set [8] can be described thus: Area under curve at 100 mg/kg upon subcutaneous administration was determined in mouse; n = 5. Format: ADME, organism-based. On the set-up: dose 100 mg/kg, route subcutaneous. To be noted: in vivo, sc.
Data set [9] can be described thus: Half life at 50 mg/kg upon subcutaneous administration was determined in mouse; n = 5. Format: ADME, organism-based. Set-up: dose 50 mg/kg, route subcutaneous. The conditions noted are these: in vivo, sc.
Data set [10] concerns the target T2, 3-oxo-5-alpha-steroid 4-dehydrogenase 1 (Homo sapiens) (UniProt P18405).
T2 sequence (whole entry): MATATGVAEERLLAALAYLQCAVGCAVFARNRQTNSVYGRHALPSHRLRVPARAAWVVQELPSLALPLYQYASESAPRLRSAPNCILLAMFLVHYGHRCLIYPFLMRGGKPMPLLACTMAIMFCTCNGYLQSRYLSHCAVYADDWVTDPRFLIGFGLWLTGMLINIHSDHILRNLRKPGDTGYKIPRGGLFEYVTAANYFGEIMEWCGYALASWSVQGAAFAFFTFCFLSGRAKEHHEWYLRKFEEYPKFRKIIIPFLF
In words: Inhibition of human steroid 5-alpha-reductase type I expressed in DU-145 cells using [1-beta-3H]-androstenedione at a concentration of 10 uM. The format is functional, cell-based.

Data set [11] can be described thus: Area under curve at 50 mg/kg upon subcutaneous administration was determined in mouse; n = 5. Format: ADME, organism-based. Set-up: dose 50 mg/kg, route subcutaneous. The conditions noted are these: in vivo, sc.
Data set [12] in a line: Maximum concentration at 50 mg/kg upon subcutaneous administration was determined in mouse; n = 5. Format: ADME, organism-based. On the set-up: dose 50 mg/kg, route subcutaneous. To be noted: in vivo, sc.
The nature of data set [13]: […] at 50 mg/kg upon subcutaneous administration was determined in mouse; n = 5. The format is ADME, organism-based. On the set-up: dose 50 mg/kg, route subcutaneous. The conditions noted are these: in vivo, sc.
A short description of data set [14]: Half life at 100 mg/kg upon subcutaneous administration was determined in mouse; n = 5. Format: ADME, organism-based. Set-up: dose 100 mg/kg, route subcutaneous. To be noted: in vivo, sc.
For data set [15], the target named is T2, 3-oxo-5-alpha-steroid 4-dehydrogenase 1 (Homo sapiens). Put plainly: Inhibition of [1-beta-3H]-androstenedione binding to human steroid 5-alpha-reductase type I expressed in DU-145 cells at 10 uM; ni=no inhibition up to 10 uM. Format: functional, cell-based.
Data set [16] concerns the target T3, 3-oxo-5-alpha-steroid 4-dehydrogenase 2 (Homo sapiens, UniProt P31213).
T3 sequence (P31213 whole entry): T1 sequence (whole entry)
The data set is described as §1. The format is functional.

The target in data set [17] is T4, 3-oxo-5-alpha-steroid 4-dehydrogenase 1 (Homo sapiens, UniProt P18405).
T4 sequence (P18405 whole entry): T2 sequence (whole entry)
In words: Inhibition of [1-beta-3H]-androstenedione binding to human steroid 5-alpha-reductase type I expressed in DU-145 cells at 10 uM. The format is functional, cell-based.

Structures are written as SMILES.

As usually defined, the Tmax is the time at which the peak concentration occurs. The inhibition is how much of the control response was suppressed. The Cmax is the highest concentration seen after dosing. As a reminder, the AUC is the area under the concentration-time curve, a measure of exposure. High values mean more exposure, low ones less exposure. As usually defined, the MRT is a mean duration of stay, worked out from the concentration-time curve. In general, half-life refers to the time in which the quantity being followed falls by half. In general, IC50 refers to the midpoint of a concentration-inhibition curve. A high value points to a need for much substance.

Turning to `C[C@]12CC[C@H](O)CC1=CCC1C2CC[C@]2(C)C(n3cnc4ccccc43)=CCC12` (some centres not stated), the Tmax in data set [1] and in [4] was 30 min in each case. Besides, the figures for the Vd in data set [2] and in data set [7] were 2.09899 L/kg and 3.27639 L/kg, respectively. The inhibition in [3] is 53%; in [10] it was 4%. The Cmax was found to be 32200 ng/mL in [5] and 16800 ng/mL in data set [12]. In [6], this compound returned a Kel of 0.942 h⁻¹. In addition, the AUC in data set [8] is 30200 ng·h/mL; in [11], 24000 ng·h/mL. The T1/2 in [9] came out at 44.17 min; in data set [14], 36.6 min. The mean residence time (MRT) in [13] is 65.4 min.

As for `C[C@]12CCC(=O)C=C1CCC1C2CC[C@]2(C)C(n3nnc4ccccc43)=CCC12` (some centres not stated), the inhibition in data set [3] was 56%; in data set [10], 21%.

With `C[C@]12CC[C@H](O)CC1=CCC1C2CC[C@]2(C)C(n3nnc4ccccc43)=CCC12` (some centres not stated), the inhibition in [3] was 17%; in data set [15] it was “No inhibition”.

With `C[C@]12CCC(=O)C=C1CCC1C2CC[C@]2(C)C(n3cnc4ccccc43)=CCC12` (some centres not stated), the Vd in data set [2] is 4.207 L/kg. In data set [4], the Tmax was 60 min. Besides, the k el in [6] was 0.000305 s⁻¹. In data set [9], this compound registered a half-life of 37.9 min. The IC50 in data set [16] came out at 480 nM; in [17], 770 nM. This compound also gave an AUC in [11] of 10800 ng·h/mL. The compound also returned a Cmax in data set [12] of 5150 ng/mL. The same compound gave an MRT in [13] of 80 min.
